According to ChEMBL document CHEMBL3046869, “Investigation of myorelaxant activity of 9-aryl-3,4,6,7-tetrahydroacridine-1,8-(2H,5H,9H,10H)-diones in isolated rabbit gastric fundus” (2012):
Calls of active or inactive are those of the source. The rule behind the calls is not given here.

How the values were obtained:
Details in all cases: Stomach
[1] = tested on: Gastric fundus smooth muscle; assay: Myorelaxant activity in noradrenaline-precontracted New Zealand Oryctolagus cuniculus (rabbit) gastric fundus smooth muscle strips in presence of KV blocker 4-aminopyridine
[2] = species on record: Oryctolagus cuniculus; assay: Activation of potassium channel in noradrenaline-precontracted New Zealand Oryctolagus cuniculus (rabbit) gastric fundus smooth muscle strips assessed as muscle relaxant activity; format: tissue-based
[3] = tested on: Gastric fundus smooth muscle; assay: Myorelaxant activity in noradrenaline-precontracted New Zealand Oryctolagus cuniculus (rabbit) gastric fundus smooth muscle strips in presence of large-conductance Ca2+-activated K+ channel blocker iberiotoxin; format: functional
[4] = tested on: Gastric fundus smooth muscle; assay: Myorelaxant activity in noradrenaline-precontracted New Zealand Oryctolagus cuniculus (rabbit) gastric fundus smooth muscle strips in presence of Ca2+-activated K+ channel blocker TEA; format: functional
[5] = tested on: Gastric fundus smooth muscle; assay: Myorelaxant activity in noradrenaline-precontracted New Zealand Oryctolagus cuniculus (rabbit) gastric fundus smooth muscle strips in presence of K-ATP channel blocker glibenclamide; format: functional
[6] = species on record: Oryctolagus cuniculus; assay: Activation of potassium channel in noradrenaline-precontracted New Zealand Oryctolagus cuniculus (rabbit) gastric fundus smooth muscle strips assessed as muscle relaxant activity relative to control; format: tissue-based
[7] = tested on: Gastric fundus smooth muscle; assay: Myorelaxant activity in noradrenaline-precontracted New Zealand Oryctolagus cuniculus (rabbit) gastric fundus smooth muscle strips in presence of small-conductance Ca2+-activated K+ channel blocker apamine; format: functional

| Structure (SMILES) | Emax [1] | pD2 [2] | Emax [3] | Emax [4] | Emax [5] | Emax [6] | Emax [7] |
| --- | --- | --- | --- | --- | --- | --- | --- |
| CC1CC(=O)C2=C(C1)NC1=C(C(=O)CC(C)C1)C2c1ccc(F)cc1 (configuration not stated) | 21.8% | 4.6 | 39.1% | 18.8% | 46.7% | 37.2% | 39.3% |
| CC1CC(=O)C2=C(C1)NC1=C(C(=O)CC(C)C1)C2c1ccccc1F (configuration not stated) | inactive | inactive | inactive | inactive | inactive | inactive | inactive |
| CC1CC(=O)C2=C(C1)NC1=C(C(=O)CC(C)C1)C2c1cccc(C#N)c1 (configuration not stated) | 32.3% | 4.7 | 30.9% | 44.6% | 66% | 56% | 60.6% |
| CC1CC(=O)C2=C(C1)NC1=C(C(=O)CC(C)C1)C2c1ccc(C(F)(F)F)cc1 (configuration not stated) | 14% | 4.68 | 43.3% | 35.1% | 43.8% | 33.8% | 26.7% |
| CC1CC(=O)C2=C(C1)NC1=C(C(=O)CC(C)C1)C2c1ccccc1C(F)(F)F (configuration not stated) | inactive | inactive | inactive | inactive | inactive | inactive | inactive |
| CC1CC(=O)C2=C(C1)NC1=C(C(=O)CC(C)C1)C2c1ccccc1[N+](=O)[O-] (configuration not stated) | inactive | inactive | inactive | inactive | inactive | inactive | inactive |
| CC(N/C(=N\C#N)Nc1ccncc1)C(C)(C)C (configuration not stated) |  | 4.9 |  |  |  | 73.5% |  |
| CC1CC(=O)C2=C(C1)NC1=C(C(=O)CC(C)C1)C2c1ccc(C#N)cc1 (configuration not stated) | 51.1% | 4.57 | 52% | 45.2% | 45.2% | 46% | 45.7% |
| CC1CC(=O)C2=C(C1)NC1=C(C(=O)CC(C)C1)C2c1cccc([N+](=O)[O-])c1 (configuration not stated) | 54.1% | 4.57 | 54.4% | 54.6% | 51.8% | 62.1% | 35.3% |
| CC1CC(=O)C2=C(C1)NC1=C(C(=O)CC(C)C1)C2c1cccc(C(F)(F)F)c1 (configuration not stated) | inactive | inactive | inactive | inactive | inactive | inactive | inactive |
| CC1CC(=O)C2=C(C1)NC1=C(C(=O)CC(C)C1)C2c1ccc([N+](=O)[O-])cc1 (configuration not stated) | 51.4% | 4.66 | 82.5% | 74.4% | 52% | 53.9% | 54.5% |
